ChEMBL document CHEMBL1201862, “PubChem BioAssay data set” (2004)
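Tested at 5 concentrations; 48 h exposure; 96-well plates; endpoints linearly interpolated, else capped at highest concentration. GI50 is the concentration that inhibits growth by half.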 Active and inactive are the calls of the source. Cut-off read from the data, not from the text of the source: active = GI50 up to about 1.1 µM and inactive = higher.

Legend:
Experiment in all cases: DTP human tumour cell line panel, 48 h
ACHN = tested on: ACHN
EKVX = tested on: EKVX
HCT-15 = tested on: HCT-15
MOLT-4 = tested on: MOLT-4
Malme-3M = tested on: Malme-3M
OVCAR-4 = tested on: OVCAR-4
OVCAR-8 = tested on: OVCAR-8
RPMI-8226 = tested on: RPMI-8226
SF-268 = tested on: SF-268
SK-OV-3 = tested on: SK-OV-3
SNB-19 = tested on: SNB-19
SW-620 = tested on: SW-620
UO-31 = tested on: UO-31
HCC 2998 = tested on: HCC 2998
HOP-62 = tested on: HOP-62
HL-60 = tested on: HL-60

Measured: GI50

O=C(CCC(=O)Nc1ccc(Cl)c(Cl)c1)CC(=O)c1ccc(Br)cc1
inactive: ACHN 71.8 µM | EKVX > 100 µM | MOLT-4 > 100 µM | Malme-3M > 100 µM | OVCAR-4 > 100 µM | OVCAR-8 > 100 µM | RPMI-8226 > 100 µM | SF-268 > 100 µM | SK-OV-3 > 100 µM | SNB-19 > 100 µM | SW-620 > 100 µM | UO-31 > 100 µM
40.5 µM: HCT-15

CC(=O)NC(CCCCNC(=O)OCc1ccccc1)C(=O)NCc1ccccc1 (stereo unspecified)
inactive: ACHN > 100 µM | EKVX > 100 µM | HCC 2998 > 100 µM | HOP-62 > 100 µM | MOLT-4 > 100 µM | Malme-3M > 100 µM | OVCAR-4 > 100 µM | OVCAR-8 > 100 µM | RPMI-8226 > 100 µM | SF-268 > 100 µM | SK-OV-3 > 100 µM | SNB-19 > 100 µM | SW-620 > 100 µM | UO-31 > 100 µM
> 100 µM: HCT-15

COc1cc2c(cc1OC)C(C#N)(Cc1ccccc1)N(C(=O)c1ccccc1)C=C2 (stereo unspecified)
38.8 µM: HCT-15
inactive: ACHN 82.8 µM | EKVX 39.6 µM | HCC 2998 > 100 µM | HL-60 36.4 µM | HOP-62 51.5 µM | MOLT-4 32.5 µM | Malme-3M > 100 µM | OVCAR-8 65.8 µM | RPMI-8226 35.5 µM | SF-268 > 100 µM | SK-OV-3 75.3 µM | SNB-19 > 100 µM | SW-620 81.5 µM | UO-31 36 µM

O=C1O/C(=C(/c2ccc(Cl)cc2)c2nc3ccccc3[nH]2)C(O)=C1c1ccc(Cl)cc1
inactive: ACHN 2.51 µM | EKVX 1.46 µM | HCC 2998 2.83 µM | HL-60 2 µM | HOP-62 1.8 µM | MOLT-4 1.95 µM | Malme-3M 2 µM | OVCAR-4 2.4 µM | OVCAR-8 2.82 µM | RPMI-8226 2.28 µM | SF-268 2.46 µM | SK-OV-3 2.86 µM | SNB-19 2.93 µM | SW-620 3.48 µM | UO-31 2.9 µM

O=C(/C=C/c1ccccc1F)C(c1ccccc1)c1ccccc1
4.31 µM: HCT-15
inactive: ACHN 2.56 µM | EKVX 11.2 µM | HL-60 3.07 µM | MOLT-4 1.24 µM | Malme-3M 10.8 µM | RPMI-8226 3.53 µM | SF-268 3.11 µM | SK-OV-3 2.01 µM | SNB-19 2.14 µM | SW-620 3.83 µM | UO-31 12.3 µM

O=C(Cc1nc2ccccc2o1)C(=O)Nc1ccc(Cl)cc1Cl
inactive: ACHN > 100 µM | EKVX > 100 µM | HCC 2998 > 100 µM | HOP-62 > 100 µM | Malme-3M > 100 µM | OVCAR-4 > 100 µM | OVCAR-8 > 100 µM | RPMI-8226 > 100 µM | SF-268 > 100 µM | SK-OV-3 > 100 µM | SNB-19 > 100 µM | SW-620 > 100 µM | UO-31 > 100 µM
> 100 µM: HCT-15

Nc1ccc(C(=O)NN2C(=O)C(Cl)C2c2ccccc2)cc1 (stereo unspecified)
> 100 µM: HCT-15
inactive: ACHN > 100 µM | EKVX > 100 µM | HCC 2998 > 100 µM | HOP-62 > 100 µM | MOLT-4 > 100 µM | Malme-3M > 100 µM | OVCAR-4 > 100 µM | OVCAR-8 > 100 µM | RPMI-8226 > 100 µM | SF-268 > 100 µM | SK-OV-3 > 100 µM | SNB-19 > 100 µM | SW-620 > 100 µM | UO-31 > 100 µM

O=C(c1ccccc1)[C@@H]1C[C@H](Sc2ccccc2)c2cc(Cl)ccc2N1
25.4 µM: HCT-15
inactive: ACHN 29.2 µM | EKVX 10 µM | HCC 2998 20.5 µM | HOP-62 51.6 µM | MOLT-4 7.08 µM | Malme-3M 32.4 µM | OVCAR-4 37.5 µM | OVCAR-8 23.4 µM | RPMI-8226 23.7 µM | SF-268 19 µM | SNB-19 43.3 µM | SW-620 22.5 µM | UO-31 12.7 µM

CCOC(=O)Nc1ccc(S(=O)(=O)I)cc1.CCOC(=O)Nc1ccc(S(=O)(=O)I)cc1.CNC(=O)N=O.NC(=O)OCCCl
70.8 µM: HCT-15
inactive: ACHN > 100 µM | HCC 2998 > 100 µM | HL-60 45.3 µM | HOP-62 46.7 µM | MOLT-4 > 100 µM | Malme-3M 49.8 µM | OVCAR-8 > 100 µM | SF-268 > 100 µM | SK-OV-3 > 100 µM | SNB-19 > 100 µM | SW-620 61.8 µM | UO-31 > 100 µM

CN(C)c1ccc(N=O)c(O)c1.CN(C)c1ccc(N=O)c(O)c1.[SiH4]
inactive: ACHN 2.67 µM | EKVX 15.3 µM | HCC 2998 15.4 µM | HL-60 4.41 µM | HOP-62 23 µM | MOLT-4 11.5 µM | Malme-3M 14.1 µM | OVCAR-4 12.7 µM | OVCAR-8 12.9 µM | RPMI-8226 31.6 µM | SF-268 6.98 µM | SK-OV-3 20.7 µM | SNB-19 17.3 µM | SW-620 10.2 µM | UO-31 16.3 µM
